The values below come from BindingDB's records for doi:10.1176/jnp.8.2.223 (1996).

Several values for one entry are separate records, joined by “and”; a condition that tells them apart may be missing. Equal entries are not always repeated. Structures can show the parent of a compound that is named as a salt.

Chain of D(2) dopamine receptor (P20288 whole entry): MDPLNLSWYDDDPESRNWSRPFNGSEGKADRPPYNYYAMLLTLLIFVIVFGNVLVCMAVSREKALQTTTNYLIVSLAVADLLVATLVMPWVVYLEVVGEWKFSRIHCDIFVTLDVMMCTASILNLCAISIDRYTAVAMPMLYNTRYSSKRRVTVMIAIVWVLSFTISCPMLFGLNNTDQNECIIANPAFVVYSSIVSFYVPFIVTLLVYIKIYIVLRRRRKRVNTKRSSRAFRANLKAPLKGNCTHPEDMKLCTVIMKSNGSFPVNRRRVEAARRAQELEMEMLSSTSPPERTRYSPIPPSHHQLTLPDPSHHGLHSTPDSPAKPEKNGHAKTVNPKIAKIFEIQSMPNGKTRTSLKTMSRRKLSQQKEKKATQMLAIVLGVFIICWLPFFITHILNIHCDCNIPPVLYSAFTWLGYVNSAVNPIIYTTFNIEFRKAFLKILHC
Chain of D(1A) dopamine receptor (Q95136 whole entry): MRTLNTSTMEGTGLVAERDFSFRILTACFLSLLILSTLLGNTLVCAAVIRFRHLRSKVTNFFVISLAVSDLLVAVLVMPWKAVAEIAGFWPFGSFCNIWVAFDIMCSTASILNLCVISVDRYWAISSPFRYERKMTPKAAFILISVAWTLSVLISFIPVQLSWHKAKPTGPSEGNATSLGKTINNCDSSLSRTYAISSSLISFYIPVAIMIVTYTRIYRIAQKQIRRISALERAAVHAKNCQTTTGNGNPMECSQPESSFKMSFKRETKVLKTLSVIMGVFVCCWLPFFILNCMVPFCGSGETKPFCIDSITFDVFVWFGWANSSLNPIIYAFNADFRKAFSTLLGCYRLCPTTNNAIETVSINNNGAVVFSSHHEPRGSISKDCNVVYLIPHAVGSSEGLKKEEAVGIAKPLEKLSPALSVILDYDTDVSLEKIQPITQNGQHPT

One assay addresses D(2) dopamine receptor (Bos taurus, UniProt P20288).
For `O=c1[nH]c2ccccc2n1C1CCN(CCCC(c2ccc(F)cc2)c2ccc(F)cc2)CC1` [1-(1-(4,4-bis(4-fluorophenyl)butyl)piperidin-4-yl)-1H-benzo[d]imidazol-2(3H)-one], the Ki worked out at 0.8 nM.

In the case of `OCCN1CCN(CCCN2c3ccccc3Sc3ccc(C(F)(F)F)cc32)CC1` [2-[4-[3-[2-(trifluoromethyl)phenothiazin-10-yl]propyl]piperazin-1-yl]ethanol;hydrochloride], the Ki was 1.2 nM and 0.5 nM.

Consider `OCCN1CCN(CC/C=C2/c3ccccc3Sc3ccc(C(F)(F)F)cc32)CC1` [(cis) 2-{4-[3-(2-Trifluoromethyl-thioxanthen-9-ylidene)-propyl]-piperazin-1-yl}-ethanol(Flupentixol)], for which affinity was put at a Ki of 1.1 nM.

On to `CN1CCN(CC/C=C2/c3ccccc3Sc3ccc(S(=O)(=O)N(C)C)cc32)CC1` [MLS000028463], for which the Ki was found to be 1.4 nM.

The next assay has as its target D(1A) dopamine receptor (Bos taurus, UniProt Q95136).
As for `O=c1[nH]c2ccccc2n1C1CCN(CCCC(c2ccc(F)cc2)c2ccc(F)cc2)CC1` [1-(1-(4,4-bis(4-fluorophenyl)butyl)piperidin-4-yl)-1H-benzo[d]imidazol-2(3H)-one], the affinity corresponds to a Ki of 4100 nM. In other words, the single-digit micromolar range.

Take `O=C(CCCN1CCC(O)(c2ccc(Cl)cc2)CC1)c1ccc(F)cc1` [4-[4-(4-Chloro-phenyl)-4-hydroxy-piperidin-1-yl]-1-(4-fluoro-phenyl)-butan-1-one;propionate(HCl)]: the Ki is 650 nM. This Ki is about 6.3-fold lower than that of the compound before.
